# Measurements: patent publication US6287840A (Axys Pharmaceuticals, Inc., priority 1999, dated 2001)
# Peptide text beside a SMILES is read from it. * marks the point of attachment. X1 = CS(=O)(=O)C=CC(CC(=O)O)N*
# How the values were obtained:
# [1] = molecular target: T1, Cloned cathepsin S (Homo sapiens, UniProt P25774); test: Inhibition of cathepsin S, Z-Val-Val-Arg-AMC fluorescence progress curves; assay type: biochemical; conditions: for kobs /[I]* (approximate second-order inactivation constant) / kinact/KI: values marked *; for kinact/KI: read-out: kobs /[I]* (approximate second-order inactivation constant)
# T1 construct: made in house
# T1 sequence (P25774 115-331): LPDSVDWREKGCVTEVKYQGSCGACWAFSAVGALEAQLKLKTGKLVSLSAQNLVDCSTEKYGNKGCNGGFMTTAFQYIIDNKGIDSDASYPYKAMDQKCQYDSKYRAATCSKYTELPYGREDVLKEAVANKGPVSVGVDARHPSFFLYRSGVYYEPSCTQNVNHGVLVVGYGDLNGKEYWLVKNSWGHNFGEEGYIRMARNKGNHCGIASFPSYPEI
# Protocol: Stock solutions of the various inhibitors (10 mM) were made in DMF; dilutions were made in the same solvent. Cloned cathepsin S, (see Bromme et al., J. Biol. Chem. 268(&): 4832-4838 (1993)) was less than 1 nM in the assay. The assay buffer contained 100 mM phosphate at pH 6.5, 0.01% Triton, 2.5 mM dithiothreitol (DTT), and 2.5 mM ethylenediaminetetraacetic acid (EDTA). The substrate for cathepsin S was 10 μM Z-Val-Val-Arg-AMC (carbobenzyloxyvalinylvalinylarginylaminomethylcoumarin). The assays were initiated at 25° C. by addition of enzyme to 2 mL of assay buffer containing the substrate and the various inhibitors (30-0.001 μM). The increase in fluorescence at 460 nm with excitation at 380 nm was followed with time. Inactivation of cathepsin S was indicated by a downward curve in the increase in fluorescence with time. In the absence of inhibitors, the enzymatic production of free AMC was linear throughout the time course of inactivation examined. Data points were collected over at least 3 half-times of inactivation. The inhibition progress curves were analyzed using non-linear curve fitting software to compute the kobs values. Approximate second-order inactivation constants (kobs /[I]) were calculated for all compounds. For selected inhibitors, plots of 1/[I] vs. 1/kobs yielded the true constants kirr, KI, and kirr /KI, and were corrected for the presence of substrate by dividing KI (app.) by {1+[S]/Km}.
# [2] = molecular target: T2, Cathepsin B from human placenta (Homo sapiens, UniProt P07858); test: Inhibition of cathepsin B, Z-Arg-Arg-AMC fluorescence progress curves; assay type: biochemical; conditions: for k/KI (kirr/KI): values without asterisk; for k/KI (kirr/KI) / kobs /[I]* (approximate second-order inactivation constant): 25° C., pH 6.2; for kobs /[I]* (approximate second-order inactivation constant): values marked *
# T2 construct: Cathepsin B from human placenta, obtained from Sigma; purchased Sigma; host or cells: human placenta (tissue)
# Protocol: Stock solutions of the various inhibitors (10 mM) were made in DMF; dilutions were made in the same solvent. Cathepsin B from human placenta, obtained from Sigma, was approximately 10 nM in the assay. The assay buffer contained 50 mM phosphate at pH 6.2, 2.5 mM dithiothreitol (DTT), and 2.5 mM ethylenediaminetetraacetic acid (EDTA). The substrate for cathepsin B was 50 μM Z-Arg-Arg-AMC (carbobenzyloxyarginylarginylaminomethylcoumarin). The assays were initiated at 25° C. by addition of enzyme to 2 mL of assay buffer containing the substrate and the various inhibitors (30-0.001 (μM). The increase in fluorescence at 460 nm with excitation at 380 nm was followed with time, and the assay was linear throughout the range observed. Inactivation of cathepsin B was indicated by a downward curve in the increase in fluorescence with time. In the absence of inhibitors, the enzymatic production of free AMC was linear throughout the time course of inactivation examined. Data points were collected over at least 3 half-times of inactivation, and in duplicate. The inhibition progress curves were analyzed using non-linear curve fitting software to compute the kobs values. Approximate second-order inactivation constants (kobs /[I]) were calculated for all compounds. For selected inhibitors, plots of 1/[I] vs. 1/kobs yielded the true constants kirr, KI, and kirr /KI, and were corrected for the presence of substrate by dividing KI (app.) by {1+[S]/Km }.
# [3] = tested on: Leishmania donovani amastigote infected mouse peritoneal macrophages; test: In vitro antiprotozoal activity, Leishmania donovani; assay type: cell-based; parameters: key to percentage inhibition, L. donovani: the term "T" indicates the molecule to have displayed cytotoxicity
# Protocol: (§1) In this table, the in vitro antiprotozoal activities of the indicated compounds were measured as percentage inhibition of Leishmania donovani amastigote infecteda mouse peritoneal macrophages, Trypanosoma cruzi amastigote infected macrophages, and Trypanosoma brucei extracellular bloodstream forms.
# [4] = tested on: Trypanosoma cruzi amastigote infected macrophages; test: In vitro antiprotozoal activity, Trypanosoma cruzi; assay type: cell-based
# Protocol: as §1
# [5] = tested on: Trypanosoma brucei extracellular bloodstream forms; test: In vitro antiprotozoal activity, Trypanosoma brucei; assay type: cell-based
# Protocol: as §1
# [6] = molecular target: cruzain, from T. cruzi (Trypanosoma cruzi, UniProt P25779); test: Inhibition of cruzain, as for cathepsin L; assay type: biochemical
# cruzain, from T. cruzi, sequence (P25779 123-337 limits assumed): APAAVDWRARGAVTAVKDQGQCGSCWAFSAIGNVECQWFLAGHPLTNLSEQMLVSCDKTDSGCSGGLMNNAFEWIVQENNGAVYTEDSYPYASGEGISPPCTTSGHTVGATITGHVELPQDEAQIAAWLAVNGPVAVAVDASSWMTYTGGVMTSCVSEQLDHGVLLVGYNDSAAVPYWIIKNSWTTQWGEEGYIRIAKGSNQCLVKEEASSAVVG
# Protocol: (§2) Stock solutions of the various inhibitors (10 mM) were made in DMF; dilutions were made in the same solvent. Cathepsin L from rat liver, (see Mason et al., Biochem. J. 226:233-241 (1985)) was approximately 1 nM in the assay. The assay buffer contained 50 mM phosphate at pH 6:2, 2.5 mM dithiothreitol (DTT), and 2.5 mM ethylenediaminetetraacetic acid (EDTA). The substrate for cathepsin L was 5 μM Z-Phe-Arg-AMC (carbobenzyloxyphenylalanylarginylaminomethylcoumarin). The assays were initiated at 25° C. by addition of enzyme to 2 mL of assay buffer containing the substrate and the various inhibitors (30-0.001 μM). The increase in fluorescence at 460 nm with excitation at 380 nm was followed with time. Inactivation of cathepsin L was indicated by a downward curve in the increase in fluorescence with time. In the absence of inhibitors, the enzymatic production of free AMC was linear throughout the time course of inactivation examined. Data points were collected over at least 3 half-times of inactivation. The inhibition progress curves were analyzed using non-linear curve fitting software to compute the kobs values. Approximate second-order inactivation constants (kobs /[I]) were calculated for all compounds. For selected inhibitors, plots of 1/[I] vs. 1/kobs yielded the true constants kirr, KI, and kirr/KI and were corrected for the presence of substrate by dividing KI (app.) by (1+[S]/Km).
# Inhibition of cruzain, from T. cruzi, (see Eakin et at., J. Biol. Chem. 268(9): 6115-6118 (1993)) proceeded exactly as for cathepsin L, outlined above, using an enzyme concentration of 1 nM.
# [7] = molecular target: T3, Cathepsin L from rat liver (Rattus norvegicus, UniProt P07154); test: Inhibition of cathepsin L, Z-Phe-Arg-AMC fluorescence progress curves; assay type: biochemical; conditions: for kobs /[I]* (approximate second-order inactivation constant): values marked *; for kobs /[I]* (approximate second-order inactivation constant) / k/KI (kirr/KI): 25° C., pH 6.2; for Ki: corrected for substrate; for k/KI (kirr/KI): values without asterisk
# T3 construct: Cathepsin L from rat liver; from tissue; host or cells: rat liver
# T3 sequence (P07154 114-288 limits assumed): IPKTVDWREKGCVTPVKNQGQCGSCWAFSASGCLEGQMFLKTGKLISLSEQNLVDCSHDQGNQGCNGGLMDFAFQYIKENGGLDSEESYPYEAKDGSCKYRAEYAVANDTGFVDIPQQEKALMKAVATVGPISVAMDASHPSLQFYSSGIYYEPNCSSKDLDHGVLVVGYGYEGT
# T3 sequence (P07154 291-334 limits assumed): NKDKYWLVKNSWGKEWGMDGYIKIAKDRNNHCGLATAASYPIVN
# Protocol: as §2
compound,measurement,setting,value
CC(C)C[C@H](NC(=O)OCc1ccccc1)C(=O)N[C@H](/C=C/S(=O)(=O)c1ccccc1)Cc1ccccc1,kobs /[I]* (approximate second-order inactivation constant),"[1]; 25° C., pH 6.5","3,000,000 M^-1 sec^-1"
"CC(=O)N[C@@H](CC(C)C)C(=O)N[C@@H](CC(C)C)C(=O)N[C@H](/C=C/S(=O)(=O)c1ccccc1)Cc1ccc(O)cc1 [Ac-Leu-Leu-TyrVSPh, (S)-(E)-3-(acetylleucylleucyl)amino-4-(4-hydroxyphenyl)-1-phenylsulfonyl-1-butene]",kinact/KI,"[1]; 25° C., pH 6.5",100000 M⁻¹ s⁻¹
CC(=O)NC(Cc1ccc(O)cc1)C(=O)NC(Cc1ccc(O)cc1)C(=O)NC(C(=O)NC(C)C(=O)NC(C=CS(C)(=O)=O)CC(=O)O)C(C)C (stereo not drawn) [Ac-Tyr-Tyr-Val-Ala-AspVSMe] (Ac-YYVA-X1; configuration not given here),k/KI (kirr/KI),[2],0 M⁻¹ s⁻¹
"CN(C)S(=O)(=O)N[C@@H](Cc1ccccc1)C(=O)N[C@H](/C=C/S(=O)(=O)c1ccccc1)CCc1ccccc1 [DimSam-Phe-HphVSPh, (S)-(E)-3-(dimethylsulfamoylphenylalanyl)amino-5-phenyl-1-phenylsulfonyl-1-pentene]",kinact/KI,"[1]; 25° C., pH 6.5",920000 M⁻¹ s⁻¹
Cl.NC(C=CS(=O)(=O)c1ccccc1)CCCCNC(=O)OCc1ccccc1 (stereo not drawn) [HCl.(e-Z)LysVSPh],"percentage inhibition, L. donovani",[3]; 3 uM,100%
same,"percentage inhibition, L. donovani",[3]; 10 uM,100%
same,"percentage inhibition, L. donovani",[3]; 30 uM,T
same,"percentage inhibition, L. donovani",[3]; 90 uM,T
same,"ED50, T. cruzi",[4],18.34 µM
same,"percentage inhibition, T. cruzi",[4]; 3 uM,2.7%
same,"percentage inhibition, T. cruzi",[4]; 10 uM,10.6%
same,"percentage inhibition, T. cruzi",[4]; 30 uM,82.8%
same,"percentage inhibition, T. cruzi",[4]; 90 uM,97.8%
same,"ED50, T. brucei",[5],8 µM
same,"percentage inhibition, T. brucei",[5]; 1 uM,7.6%
same,"percentage inhibition, T. brucei",[5]; 3 uM,13%
same,"percentage inhibition, T. brucei",[5]; 10 uM,39.3%
same,"percentage inhibition, T. brucei",[5]; 30 uM,100%
same,"percentage inhibition, T. brucei",[5]; 90 uM,100%
Cl.NC(Cc1ccccc1)C(=O)NC(C=CS(=O)(=O)c1ccccc1)CCc1ccccc1 (stereo not drawn) [HCl.Phe-HphVSPh],kobs /[I]* (approximate second-order inactivation constant),"[1]; 25° C., pH 6.5","35,000 M^-1 sec^-1"
same,kobs /[I]* (approximate second-order inactivation constant),[6]; values marked *,"14,600 M^-1 sec^-1"
CS(=O)(=O)/C=C/[C@@H](N)Cc1ccccc1.Cl [HCl.PheVSMe],"percentage inhibition, L. donovani",[3]; 3 uM,100%
same,"percentage inhibition, L. donovani",[3]; 10 uM,100%
same,"percentage inhibition, L. donovani",[3]; 30 uM,100%
same,"percentage inhibition, L. donovani",[3]; 90 uM,100%
same,"percentage inhibition, T. cruzi",[4]; 3 uM,0%
same,"percentage inhibition, T. cruzi",[4]; 10 uM,0%
same,"percentage inhibition, T. cruzi",[4]; 30 uM,0%
same,"percentage inhibition, T. cruzi",[4]; 90 uM,17.3%
same,"percentage inhibition, T. brucei",[5]; 3 uM,0%
same,"percentage inhibition, T. brucei",[5]; 10 uM,0%
same,"percentage inhibition, T. brucei",[5]; 30 uM,0%
same,"percentage inhibition, T. brucei",[5]; 90 uM,0%
"O=C(N[C@@H](/C=C/S(=O)(=O)c1ccccc1)CCc1ccccc1)C(Cc1ccccc1)NC(=O)N1CCOCC1 (stereo partly drawn) [Mu-Phe-D-HphVSPh, (R)-(E)-3-(4-morpholinecarbonylphenylalanyl)amino-5-phenyl-1-phenylsulfonyl-1-pentene]",kobs /[I]* (approximate second-order inactivation constant),[7],"4,500 M^-1 sec^-1"
same,kobs /[I]* (approximate second-order inactivation constant),"[1]; 25° C., pH 6.5","68,500 M^-1 sec^-1"
"O=C(/C=C/[C@H](CCc1ccccc1)NC(=O)C(Cc1ccccc1)NC(=O)N1CCOCC1)NC(Cc1ccccc1)C(=O)O (stereo partly drawn) [Mu-Phe-HphVAM-PheOH, (S)-(E)-(N-phenylalanine)-4-(4-morpholinecarbonylphenylalanyl)amino-6-phenyl-2-hexenamide]",kobs /[I]* (approximate second-order inactivation constant),[2],600 M⁻¹ s⁻¹
same,kobs /[I]* (approximate second-order inactivation constant),"[1]; 25° C., pH 6.5","10,600 M^-1 sec^-1"
"O=C(NCCCC[C@@H](C=C(F)S(=O)(=O)c1ccccc1)NC(=O)[C@H](Cc1ccccc1)NC(=O)N1CCOCC1)OCc1ccccc1 [Mu-Phe-Lys(Z)fVSPh, (S)-7-(benzyloxycarbonyl)amino-3-(4-morpholinecarbonylphenylalanyl)amino-1-fluoro-1-phenylsulfonyl-1-heptene]",kobs /[I]* (approximate second-order inactivation constant),[2],"2,000 M^-1 sec^-1"
same,kobs /[I]* (approximate second-order inactivation constant),"[1]; 25° C., pH 6.5","10,700 M^-1 sec^-1"
"Br.CCOC(=O)/C=C/[C@H](CCCCN)NC(=O)[C@H](Cc1ccccc1)NC(=O)N1CCOCC1 [Mu-Phe-LysVEOEt.HBr, (S)-(E)-Ethyl 8-amino-4-(4-morpholinecarbonylphenylalanyl)amino-2octenoate hydrobromide]",kobs /[I]* (approximate second-order inactivation constant),[2],650 M⁻¹ s⁻¹
same,kirr,[7],0.085 s⁻¹
same,Ki,[7],24.2 µM
same,k/KI (kirr/KI),[7],3500 M⁻¹ s⁻¹
(S)-(E)-3-(4-morpholinecarbonyl-2-naphthylalanyl)amino-5-phenyl-1-phenylsulfonyl-1-pentene [Mu-Np-HphVSPh],kobs /[I]* (approximate second-order inactivation constant),[2],"86,000 M^-1 sec^-1"
same,kobs /[I]* (approximate second-order inactivation constant),[7],"1,000,000 M^-1 sec^-1"
same,k/KI (kirr/KI),[6]; values without asterisk,"218,000 M^-1 sec^-1"
(S)-(E)-3-(4-morpholinecarbonylphenylalanyl)amino-1-(4-bromophenylsulfonyl)-5-phenyl-1-pentene [Mu-Phe-HphVSPhBr],kobs /[I]* (approximate second-order inactivation constant),[2],"15,500 M^-1 sec^-1"
(S)-(E)-Ethyl8-(benzyloxycarbonyl)amino-4-(4-morpholinecarbonylphenylalanyl)amino-2-octenoate [Mu-Phe-Lys(Z)VEOEt],kirr,[2],0.13 s⁻¹
same,Ki,[2]; corrected for substrate,32 µM
same,k/KI (kirr/KI),[2],4100 M⁻¹ s⁻¹
same,kirr,[7],0.87 s⁻¹
same,Ki,[7],6.2 µM
same,k/KI (kirr/KI),[7],"13,900 M^-1 sec^-1"
same,kirr,[1],0.13 s⁻¹
same,Ki,[1]; corrected for substrate,1.3 µM
same,k/KI (kirr/KI),"[1]; values without asterisk, 25° C., pH 6.5","100,000 M^-1 sec^-1"
Boc-phenylalanyl-homophenylalanyl-p-nitrostyryl,kobs /[I]* (approximate second-order inactivation constant),"[1]; 25° C., pH 6.5","40,100 M^-1 sec^-1"
